Assay results: patent US9657351B2, “MRNA-based gene expression for personalizing patient cancer therapy with an MDM2 antagonist” (Hoffmann-La Roche Inc., priority 2013, dated 2017)

How the values were obtained:
Assay in all cases: COMPOUND A In Vitro Assay
Type in all cases: cell-based
[1] = test system: MKN-28; details: Homo sapiens, Stomach, TP53 Mutant
Procedure, shortened: (§1)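 Cell lines from a broad panel of human tumour types were treated with the MDM2 antagonist RG7112 in high-throughput screens to derive IC50 values. Lines with IC50<=1 were called sensitive, and those with IC50>=10 resistant.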

[2] = test system: HT-1376; details: Homo sapiens, Urinary, bladder, TP53 Mutant
Procedure, shortened: as §1

[3] = test system: NCI-H2009; details: Homo sapiens, Lung, TP53 Mutant
Procedure, shortened: as §1

[4] = test system: HCC366; details: Homo sapiens, Lung, TP53 Mutant
Procedure, shortened: as §1

[5] = test system: AGS; details: Homo sapiens
Procedure, shortened: as §1

[6] = test system: SNU-1; details: Homo sapiens
Procedure, shortened: as §1

[7] = test system: NUGC-4; details: Homo sapiens
Procedure, shortened: as §1

[8] = test system: HPAC; details: Homo sapiens, Pancreas, TP53 Mutant
Procedure, shortened: as §1

[9] = test system: SCH; details: Homo sapiens, Stomach, TP53 Mutant
Procedure, shortened: as §1

[10] = test system: COLO-824; details: Homo sapiens, Breast, TP53 Wild type
Procedure, shortened: as §1

[11] = test system: T-47D; details: Homo sapiens, T47D, Breast, mammary gland, TP53 Mutant
Procedure, shortened: as §1

[12] = test system: NCI-H441; details: Homo sapiens, Lung, TP53 Mutant
Procedure, shortened: as §1

[13] = test system: MOLM-13; details: Homo sapiens
Procedure, shortened: as §1

[14] = test system: NCI-H1568; details: Homo sapiens, tissue NA, TP53 Mutant
Procedure, shortened: as §1

[15] = test system: NCI-H596; details: Homo sapiens, Lung, TP53 Mutant
Procedure, shortened: as §1

[16] = test system: NCI-H1793; details: Homo sapiens, Lung, TP53 Mutant
Procedure, shortened: as §1

[17] = test system: KHM-1B; details: Homo sapiens, Lymphocyte, TP53 Wild type
Procedure, shortened: as §1

[18] = test system: RPMI-2650; details: Homo sapiens
Procedure, shortened: as §1

[19] = test system: HEC-1-A; details: Homo sapiens, Uterus, endometrium, TP53 Mutant
Procedure, shortened: as §1

[20] = test system: HARA; details: Homo sapiens, Lung, TP53 Mutant
Procedure, shortened: as §1

[21] = test system: NUGC-3; details: Homo sapiens, Stomach, TP53 Mutant
Procedure, shortened: as §1

[22] = test system: U-698-M; details: Homo sapiens, Tonsil, TP53 Mutant
Procedure, shortened: as §1

[23] = test system: SU•86•86; details: Homo sapiens, SU.86.86, Pancreas, TP53 Mutant
Procedure, shortened: as §1

[24] = test system: MCF7; details: Homo sapiens
Procedure, shortened: as §1

[25] = test system: MDA-MB-134-VI; details: Homo sapiens, Breast, mammary gland, TP53 Mutant
Procedure, shortened: as §1

[26] = test system: KELLY; details: Homo sapiens, Brain, TP53 Mutant
Procedure, shortened: as §1

[27] = test system: NCI-H520; details: Homo sapiens, Lung, TP53 Mutant
Procedure, shortened: as §1

[28] = test system: NCCIT; details: Homo sapiens, Germ cell, gametocyte, TP53 Mutant
Procedure, shortened: as §1

[29] = test system: F-36P; details: Homo sapiens, Myeloblast, TP53 Mutant
Procedure, shortened: as §1

[30] = test system: MC/CAR; details: Homo sapiens
Procedure, shortened: as §1

[31] = test system: SK-OV-3; details: Homo sapiens, Ovary, TP53 Mutant
Procedure, shortened: as §1

[32] = test system: NCI-H1155; details: Homo sapiens, Lung, TP53 Mutant
Procedure, shortened: as §1

[33] = test system: NCI-H1792; details: Homo sapiens, Lung, TP53 Mutant
Procedure, shortened: as §1

[34] = test system: J82; details: Homo sapiens, Urinary, bladder, TP53 Mutant
Procedure, shortened: as §1

[35] = test system: MKN-1; details: Homo sapiens, Muscle, smooth, stomach, TP53 Mutant
Procedure, shortened: as §1

[36] = test system: HCC1500; details: Homo sapiens, Breast, mammary gland, TP53 Wild type
Procedure, shortened: as §1

`CCOc1cc(C(C)(C)C)ccc1C1=N[C@@](C)(c2ccc(Cl)cc2)[C@@](C)(c2ccc(Cl)cc2)N1C(=O)N1CCN(CCCS(C)(=O)=O)CC1` [COMPOUND A] was tested, and the IC50 [1] was 8.1 µM, the IC50 [2] was 16 µM and the IC50 [3] was 9.9 µM. The IC50 [4] was 8.7 µM, the IC50 ([5]; AGS cells) was 0.1 µM and the IC50 ([5]; Stomach, TP53 Wild type) was 0.13 µM. For the same molecule, the IC50 ([6]; SNU1, SNU-1, Stomach, TP53 Wild type) was 0.37 µM, the IC50 ([6]; SNU1, SNU-1 cells) was 0.4 µM and the IC50 ([7]; NUGC-4, NUGC-4, Stomach, TP53 Wild type) was 0.38 µM. For the same molecule, the IC50 ([7]; NUGC-4, NUGC-4 cells) was 0.4 µM, the IC50 [8] was 4.6 µM and the IC50 [9] was 17 µM. The IC50 [10] was 15 µM, the IC50 [11] was 9.9 µM and the IC50 [12] was 10 µM. For the same molecule, the IC50 ([13]; MOLM-13, MOLM-13, Blood, TP53 Wild type) was 0.19 µM, the IC50 ([13]; MOLM-13, MOLM-13 cells) was 0.2 µM and the IC50 [14] was 9.6 µM. It also gave an IC50 [15] of 18 µM, an IC50 [16] of 10 µM and an IC50 [17] of 6.9 µM. The IC50 ([18]; RPMI-2650, RPMI-2650, Nasal septum, TP53 Wild type) was 0.77 µM, the IC50 ([18]; RPMI-2650, RPMI-2650 cells) was 0.8 µM and the IC50 [19] was 16 µM. For the same molecule, the IC50 [20] was 19 µM, the IC50 [21] was 9.8 µM and the IC50 [22] was 9.8 µM. For the same molecule, the IC50 [23] was 6.7 µM, the IC50 ([24]; MCF7, MCF7, Breast, mammary gland, TP53 Wild type) was 0.75 µM and the IC50 ([24]; MCF7, MCF7 cells) was 0.8 µM. The IC50 [25] was 38 µM, the IC50 [26] was 15 µM and the IC50 [27] was 17 µM. The IC50 [28] was 11 µM, the IC50 [29] was 23 µM and the IC50 ([30]; MC/CAR cells) was 0.7 µM. It also gave an IC50 ([30]; MC/CAR, Lymphocyte B, peripheral blood, TP53 Wild type) of 0.69 µM, an IC50 [31] of 17 µM and an IC50 [32] of 22 µM. It also gave an IC50 [33] of 7 µM, an IC50 [34] of 20 µM and an IC50 [35] of 15 µM. For the same molecule, the IC50 [36] was 1 µM.
